Target: T1, PSMA-expressing LNCaP cells (Homo sapiens, UniProt Q04609)
T1 construct: PSMA-expressing LNCaP cells; endogenous in cells; host or cells: LNCaP
Assay: Binding competition assay against 3H-PSMA-617 on LNCaP cells
Settings: LNCaP cells, 10 nM 3H-PSMA-617, 2 h at 37° C., triplicates; for remaining activity at 0.01 µM / % remaining 3H-PSMA-617 @ 10 nM (mean): competing non-radiolabeled compound 10 nM; for remaining activity at 0.1 µM / % remaining 3H-PSMA-617 @ 100 nM (mean): competing non-radiolabeled compound 100 nM
Procedure: Cells were incubated at 37° C. and 5% CO2 over night. […] After addition of the compounds in growth media the cells were swiveled slightly on a shaker mixing for 10 min followed by incubation for 2 h at 37° C., 5% C02. Following the incubation time the supernatant was removed by pipetting and cells were washed twice with ice cold PBS (total of 800 μl). Cells were lysed in 500 μl of 0.3M NaOH (PanReac AppliChem ITW Reagents) by vigorous shaking for 15 min and the cell lysated pipetted into scintillator tubes (S207-[…]® Scintillation Vials 6.5 ml #S207, Simport). In the following the wells were washed with 500 μl PBS and the washing PBS added to the corresponding samples in the sincitallator tubes. To each sample in the scintillator tubes 4 mL of Ultima Gold liquid scintillation cocktail (Sigma-Aldrich #L8286) was added and the samples let stand for at least 30 min. Thereafter radioactivity was counted in a Tri-Carb Liquid Scinzillation Analyzer (Perkin Elmer).

T1 sequence (Q04609 whole entry): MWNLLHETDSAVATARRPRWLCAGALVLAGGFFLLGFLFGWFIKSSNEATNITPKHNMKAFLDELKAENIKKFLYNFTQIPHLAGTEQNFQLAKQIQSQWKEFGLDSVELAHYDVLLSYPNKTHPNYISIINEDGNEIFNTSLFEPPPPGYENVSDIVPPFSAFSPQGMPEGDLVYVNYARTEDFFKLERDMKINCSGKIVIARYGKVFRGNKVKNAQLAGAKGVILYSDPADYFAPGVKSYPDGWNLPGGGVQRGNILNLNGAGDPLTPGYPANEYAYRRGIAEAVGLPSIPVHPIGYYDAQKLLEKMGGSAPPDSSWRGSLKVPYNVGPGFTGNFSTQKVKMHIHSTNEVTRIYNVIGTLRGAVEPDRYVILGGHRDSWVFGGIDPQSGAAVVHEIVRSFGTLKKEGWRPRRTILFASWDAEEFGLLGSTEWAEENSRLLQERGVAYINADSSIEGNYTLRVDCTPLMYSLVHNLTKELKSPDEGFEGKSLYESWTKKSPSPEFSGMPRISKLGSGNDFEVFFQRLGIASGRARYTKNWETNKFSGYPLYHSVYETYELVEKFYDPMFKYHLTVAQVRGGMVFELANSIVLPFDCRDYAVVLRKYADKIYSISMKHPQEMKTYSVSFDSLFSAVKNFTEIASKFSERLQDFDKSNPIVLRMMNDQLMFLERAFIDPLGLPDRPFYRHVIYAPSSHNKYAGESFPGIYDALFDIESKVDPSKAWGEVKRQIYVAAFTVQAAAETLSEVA

Row | Structure (SMILES) | remaining activity at 0.01 µM | remaining activity at 0.1 µM | % remaining 3H-PSMA-617 @ 10 nM (mean) | % remaining 3H-PSMA-617 @ 100 nM (mean)
1 | Cc1cc(C(=O)NCCN(CCCN(CCNC(=O)c2cc(C)n(CC(=O)O)c(=O)c2O)CCNC(=O)c2cc(C)n(CC(=O)NCc3ccc(C(=O)N[C@@H](Cc4ccc5ccccc5n4)C(=O)NCCCC[C@H](NC(=O)N[C@@H](CCC(=O)O)C(=O)O)C(=O)O)nc3)c(=O)c2O)CCNC(=O)c2cc(C)n(CC(=O)NCc3ccc(C(=O)NC(Cc4ccc5ccccc5n4)C(=O)NCCCC[C@H](NC(=O)N[C@@H](CCC(=O)O)C(=O)O)C(=O)O)nc3)c(=O)c2O)c(O)c(=O)n1CC(=O)O (stereo partly drawn) [34-C dimer, (3S,10S,14S,3'S,10'S,14'S)-1,1′-(propane-1,3-diylbis{[(2-{[1-(carboxymethyl)-3-hydroxy-6-methyl-2-oxo-1,2-dihydropyridine-4-carbonyl]amino}ethyl)azanediyl]ethane-2,1-diylcarbamoyl(3-hydroxy-6-methyl-2-oxopyridine-4,1(2H)-diyl)(1-oxoethane-2,1-diyl)azanediylmethylenepyridine-5,2-diyl})bis{1,4,12-trioxo-3-[(quinolin-2-yl)methyl]-2,5,11,13-tetraazahexadecane-10,14,16-tricarboxylic acid}] | 42% | 7% | – | –
2 | Cc1cc(C(=O)NCCN(CCCN(CCNC(=O)c2cc(C)n(CC(=O)O)c(=O)c2O)CCNC(=O)c2cc(C)n(CC(=O)NCc3ccc(C(=O)N[C@@H](Cc4ccc5ccccc5n4)C(=O)NCCCC[C@H](NC(=O)N[C@@H](CCC(=O)O)C(=O)O)C(=O)O)nc3)c(=O)c2O)CCNC(=O)c2cc(C)n(CC(=O)O)c(=O)c2O)c(O)c(=O)n1CC(=O)O [34-C monomer] | 58% | 10% | – | –
3 | NC[C@H]1CC[C@H](C(=O)NC(Cc2ccc3ccccc3c2)C(=O)NCCCC[C@H](NC(=O)N[C@@H](CCC(=O)O)C(=O)O)C(=O)O)CC1 (stereo partly drawn) [Example 1-A, (3S,10S,14S)-1-[(1r,4S)-4-(aminomethyl)cyclohexyl]-3-[(naphthalen-2-yl)methyl]-1,4,12-trioxo-2,5,11,13-tetraazahexadecane-10,14,16-tricarboxylic acid] | 90% | 45% | – | –
4 | O=C(O)CC[C@H](NC(=O)N[C@@H](CCCCNC(=O)[C@H](Cc1ccc2ccccc2c1)NC(=O)[C@H]1CC[C@H](CNC(=O)CN2CCN(CC(=O)O)CCN(CC(=O)O)CCN(CC(=O)O)CC2)CC1)C(=O)O)C(=O)O [Example 1-B, (3S,10S,14S)-3-[(naphthalen-2-yl)methyl]-1,4,12-trioxo-1-[(1r,4S)-4-({2-[4,7,10-tris(carboxymethyl)-1,4,7,10-tetraazacyclododecan-1-yl]acetamido}methyl)cyclohexyl]-2,5,11,13-tetraazahexadecane-10,14,16-tricarboxylic acid, reference compound] | 66% | 17% | – | –
5 | O=C(O)CC[C@H](NC(=O)N[C@@H](CCCCNC(=O)[C@H](Cc1ccc2ccccc2c1)NC(=O)[C@H]1CC[C@H](CNC(=O)C[N+]23CC[N+]45CC[N+]67CC[N+]8(CC2)CC(=O)[O][Th]3486([O]C(=O)C5)[O]C(=O)C7)CC1)C(=O)O)C(=O)O (some centres unmarked) [Example 1-B-232Th, {3-[(naphthalen-2-yl)methyl]-1,4,12-trioxo-1-{4-[(2-{4,7,10-tris[(carboxy-kappaO)methyl]-1,4,7,10-tetraazacyclododecan-1-yl-kappa^4N^1,N^4,N^7,N^10}acetamido)methyl]cyclohexyl}-2,5,11,13-tetraazahexadecane-10,14,16-tricarboxylato(4−)}thorium(3+)] | – | – | 71% | 12%
6 | O=C(O)CC[C@@H](NC(=O)N[C@@H](CCCCNC(=O)[C@H](Cc1ccc2ccccc2c1)NC(=O)[C@H]1CC[C@H](CNC(=O)CN2CCN(CC(=O)O)CCN(CC(=O)O)CCN(CC(=O)O)CC2)CC1)C(=O)O)C(=O)O [Example 1-B-D, (3S,10S,14R)-3-[(naphthalen-2-yl)methyl]-1,4,12-trioxo-1-[(1r,4S)-4-({2-[4,7,10-tris(carboxymethyl)-1,4,7,10-tetraazacyclododecan-1-yl]acetamido}methyl)cyclohexyl]-2,5,11,13-tetraazahexadecane-10,14,16-tricarboxylic acid] | 80% | 78% | – | –
7 | O=C(O)CC[C@H](NC(=O)N[C@@H](CCCCNC(=O)[C@H](Cc1ccc2ccccc2c1)NC(=O)[C@H]1CC[C@H](CNC(=S)Nc2ccc(CC(CN(CCNC(=O)c3ccn(CCO)c(=O)c3O)CCNC(=O)c3ccn(CCO)c(=O)c3O)CN(CCNC(=O)c3ccn(CCO)c(=O)c3O)CCNC(=O)c3ccn(CCO)c(=O)c3O)cc2)CC1)C(=O)O)C(=O)O [Example 1-F, (3S,10S,14S)-1-{(1r,4S)-4-[({[4-(3-[bis(2-{[3-hydroxy-1-(2-hydroxyethyl)-2-oxo-1,2-dihydropyridine-4-carbonyl]amino}ethyl)amino]-2-{[bis(2-{[3-hydroxy-1-(2-hydroxyethyl)-2-oxo-1,2-dihydropyridine-4-carbonyl]amino}ethyl)amino]methyl}propyl)phenyl]carbamothioyl}amino)methyl]cyclohexyl}-3-[(naphthalen-2-yl)methyl]-1,4,12-trioxo-2,5,11,13-tetraazahexadecane-10,14,16-tricarboxylic acid] | 71% | 21% | – | –
8 | O=C(O)CC[C@H](NC(=O)N[C@@H](CCCCNC(=O)[C@H](Cc1ccc2ccccc2c1)NC(=O)[C@H]1CC[C@H](CNC(=O)COCC(=O)NCCOCCOCCOCCOCCOCCOCCOCCOCCOCCOCCOCCNC(=O)COCC(=O)Nc2ccc(CC(CN(CCNC(=O)c3ccn(CCO)c(=O)c3O)CCNC(=O)c3ccn(CCO)c(=O)c3O)CN(CCNC(=O)c3ccn(CCO)c(=O)c3O)CCNC(=O)c3ccn(CCO)c(=O)c3O)cc2)CC1)C(=O)O)C(=O)O [Example 1-PEG] | – | – | 80% | 41%
9 | NC[C@H]1CC[C@H](C(=O)N[C@@H](CCCc2ccccc2)C(=O)NCCCC[C@H](NC(=O)N[C@@H](CCC(=O)O)C(=O)O)C(=O)O)CC1 [Example 3-A, N^6—{N-[(1r,4S)-4-(aminomethyl)cyclohexane-1-carbonyl]-5-phenyl-L-norvalyl}-N^2-{[(1S)-1,3-dicarboxypropyl]carbamoyl}-L-lysine] | 100% | 88% | – | –
10 | NCC1CCC(C(=O)N[C@@H](CCCNC(N)=O)C(=O)NCCCC[C@H](NC(=O)N[C@@H](CCC(=O)O)C(=O)O)C(=O)O)CC1 (stereo partly drawn) [Example 4-A, N^6—{N^2-[(1r,4S)-4-(aminomethyl)cyclohexane-1-carbonyl]-N^5-carbamoyl-L-ornithyl}-N^2-{[(1S)-1,3-dicarboxypropyl]carbamoyl}-L-lysine] | 106% | 112% | – | –
11 | NC[C@H]1CC[C@H](C(=O)N[C@@H](CCCCNC(N)=O)C(=O)NCCCC[C@H](NC(=O)N[C@@H](CCC(=O)O)C(=O)O)C(=O)O)CC1 [Example 5-A, N^6—{N^2-[(1r,4S)-4-(aminomethyl)cyclohexane-1-carbonyl]-N^6-carbamoyl-L-lysyl}-N^2-{[(1S)-1,3-dicarboxypropyl]carbamoyl}-L-lysine] | 109% | 112% | – | –
12 | NC[C@H]1CC[C@H](C(=O)N[C@@H](Cc2cc(F)c(F)c(F)c2)C(=O)NCCCC[C@H](NC(=O)N[C@@H](CCC(=O)O)C(=O)O)C(=O)O)CC1 [Example 6-A, N^6—{N-[(1r,4S)-4-(aminomethyl)cyclohexane-1-carbonyl]-3,4,5-trifluoro-L-phenylalanyl}-N^2-{[(1S)-1,3-dicarboxypropyl]carbamoyl}-L-lysine] | 98% | 86% | – | –
13 | NC[C@H]1CC[C@H](C(=O)N[C@@H](Cc2ccc(F)cc2)C(=O)NCCCC[C@H](NC(=O)N[C@@H](CCC(=O)O)C(=O)O)C(=O)O)CC1 [Example 7-A, N^6—{N-[(1r,4S)-4-(aminomethyl)cyclohexane-1-carbonyl]-4-fluoro-L-phenylalanyl}-N^2-{[(1S)-1,3-dicarboxypropyl]carbamoyl}-L-lysine] | 106% | 93% | – | –
14 | CC(C)(C)c1ccc(C[C@H](NC(=O)[C@H]2CC[C@H](CN)CC2)C(=O)NCCCC[C@H](NC(=O)N[C@@H](CCC(=O)O)C(=O)O)C(=O)O)cc1 [Example 8-A, N^6—{N-[(1r,4S)-4-(aminomethyl)cyclohexane-1-carbonyl]-4-tert-butyl-L-phenylalanyl}-N^2-{[(1S)-1,3-dicarboxypropyl]carbamoyl}-L-lysine] | 92% | 111% | – | –
15 | NC[C@H]1CC[C@H](C(=O)N[C@@H](CCCCNC(=O)c2cccnc2)C(=O)NCCCC[C@H](NC(=O)N[C@@H](CCC(=O)O)C(=O)O)C(=O)O)CC1 [Example 9-A, N^6—{N^2-[(1r,4S)-4-(aminomethyl)cyclohexane-1-carbonyl]-N^6-(pyridine-3-carbonyl)-L-lysyl}-N^2-{[(1S)-1,3-dicarboxypropyl]carbamoyl}-L-lysine] | 147% | 114% | – | –
16 | NC[C@H]1CC[C@H](C(=O)N[C@@H](Cc2cccc(F)c2)C(=O)NCCCC[C@H](NC(=O)N[C@@H](CCC(=O)O)C(=O)O)C(=O)O)CC1 [Example 10-A, N^6—{N-[(1r,4S)-4-(aminomethyl)cyclohexane-1-carbonyl]-3-fluoro-L-phenylalanyl}-N^2-{[(1S)-1,3-dicarboxypropyl]carbamoyl}-L-lysine] | 91% | 60% | – | –

Source: patent US20230072421A1, “TARGETED RADIOPHARMACEUTICALS FOR THE DIAGNOSIS AND TREATMENT OF PROSTATE CANCER” (Bayer AS, priority 2019, published 2023)
